What was measured:
[1] = biological target: T1, G1994D mPIEZO1 (Mus musculus, UniProt E2JF22, G1994D); assay: Long substance exposure (20 min exposure) Ca2+ assay; type: cell-based
T1 construct: expressed in transfected cells
Excerpt: Supplement mmc2.xlsx, sheet "Figure 5e" | column: Mean normalise fluorescence

[2] = biological target: T2, R2351Q mPIEZO1 (Mus musculus, UniProt E2JF22, R2351Q); assay: Intracellular Ca2+ measurement (fura-2), T-REx-293 cells stably transfected; type: cell-based
T2 construct: expressed in transfected cells
Protocol: T-REx-293 cell line was transfected with pcDNA4/TO-mPIEZO1 constructs using Lipofectamine 2000 (Invitrogen) as above and treated with 200 μg.mL^−1 zeocin (InvivoGen) to select for stably transfected cells. At least two strongly expressing clonal cell lines were established and tested for each variant. All cell lines were maintained in Dulbecco’s Modified Eagle’s medium (Invitrogen) supplemented with 10% heat-inactivated fetal calf serum (Sigma-Aldrich), penicillin (50 units.mL^−1) and streptomycin (0.5 mg.mL^−1) (Sigma-Aldrich) and grown at 37°C in a humidified 5% CO2 incubator.
For intracellular Ca^2+ assays, cells were plated at 80–90% confluence in 96-well plates 24 h prior to recordings (6–8 × 10^4 cells per well). […] Cells were washed with SBS and incubated at room temperature for 20 min prior to recordings. Equal volumes of 2x concentrated compounds were injected to test for acute channel activation. Pre-incubation with compounds occurred during the 20 min prior to recordings. To expose cell membranes to hypo-osmolality, an equal volume of hypotonic SBS (containing only 35 mM NaCl) was injected onto the cells. Measurements were made on a fluorescence plate reader (Flexstation III, Molecular Devices) at room temperature (21 ± 2°C). Fura-2 was excited at 340 nm and 380 nm and emitted light collected at 510 nm, with measurements shown as the change in fluorescence (F) ratio (ΔF340/380).
KC41 (Dooku1) was prepared as described.[28] All purchased chemicals and solvents were used without further purification unless otherwise stated. All compounds were at least 95% pure by 1H NMR. 1H Nuclear Magnetic Resonance spectra were recorded at 500 MHz using a Bruker DRX 500 instrument or at 400 MHz using a Bruker DPX 400. 1H spectra are referenced based on the residual proton in the solvent (e.g., the CHCl3, 0.01% in 99.99% CDCl3). Coupling constants (J) are reported to the nearest 0.1 Hz. 13C NMR spectra were recorded at 125 MHz on 500 MHz spectrometers or at 100 MHz on 400 MHz spectrometers. LC-MS was performed on a Bruker Daltronics running a gradient of increasing acetonitrile (5–95%) in H2O both containing 0.1% formic acid at 1 mL.min^−1, on a short path C18 reverse phase column, detecting compounds with both a diode array detector and a Bruker mass spectrum analyser. HRMS was performed on a Bruker Daltonics micrOTOF using positive electrospray ionisation (ES+). Automated column chromatograph was carried out using a Biotage Isolera Four, using either Sfär Silica D or KP-Silica cartridges. HPLC was performed on an Agilent 1290 Infinity Series equipped with a UV detector and Hyperprep C18 reverse phase column. Key to NMR abbreviations: s (singlet), br s (broad singlet) d (doublet), dd (doublet of doublets), ddd (doublet of doublets of doublets), t (triplet), dt (doublet of triples), q (quartet), m (multiplet), ap. t (apparent triplet). For experiments, Yoda1 and its analogues were prepared as 10 mM stock solutions in 100% dimethyl sulfoxide (DMSO) before serial dilution in DMSO and final dilution in aqueous solution. Cells were exposed to 0.1% DMSO for all concentrations of the compounds from 0 to 10 μM.

T2 sequence (E2JF22 whole entry R2351Q): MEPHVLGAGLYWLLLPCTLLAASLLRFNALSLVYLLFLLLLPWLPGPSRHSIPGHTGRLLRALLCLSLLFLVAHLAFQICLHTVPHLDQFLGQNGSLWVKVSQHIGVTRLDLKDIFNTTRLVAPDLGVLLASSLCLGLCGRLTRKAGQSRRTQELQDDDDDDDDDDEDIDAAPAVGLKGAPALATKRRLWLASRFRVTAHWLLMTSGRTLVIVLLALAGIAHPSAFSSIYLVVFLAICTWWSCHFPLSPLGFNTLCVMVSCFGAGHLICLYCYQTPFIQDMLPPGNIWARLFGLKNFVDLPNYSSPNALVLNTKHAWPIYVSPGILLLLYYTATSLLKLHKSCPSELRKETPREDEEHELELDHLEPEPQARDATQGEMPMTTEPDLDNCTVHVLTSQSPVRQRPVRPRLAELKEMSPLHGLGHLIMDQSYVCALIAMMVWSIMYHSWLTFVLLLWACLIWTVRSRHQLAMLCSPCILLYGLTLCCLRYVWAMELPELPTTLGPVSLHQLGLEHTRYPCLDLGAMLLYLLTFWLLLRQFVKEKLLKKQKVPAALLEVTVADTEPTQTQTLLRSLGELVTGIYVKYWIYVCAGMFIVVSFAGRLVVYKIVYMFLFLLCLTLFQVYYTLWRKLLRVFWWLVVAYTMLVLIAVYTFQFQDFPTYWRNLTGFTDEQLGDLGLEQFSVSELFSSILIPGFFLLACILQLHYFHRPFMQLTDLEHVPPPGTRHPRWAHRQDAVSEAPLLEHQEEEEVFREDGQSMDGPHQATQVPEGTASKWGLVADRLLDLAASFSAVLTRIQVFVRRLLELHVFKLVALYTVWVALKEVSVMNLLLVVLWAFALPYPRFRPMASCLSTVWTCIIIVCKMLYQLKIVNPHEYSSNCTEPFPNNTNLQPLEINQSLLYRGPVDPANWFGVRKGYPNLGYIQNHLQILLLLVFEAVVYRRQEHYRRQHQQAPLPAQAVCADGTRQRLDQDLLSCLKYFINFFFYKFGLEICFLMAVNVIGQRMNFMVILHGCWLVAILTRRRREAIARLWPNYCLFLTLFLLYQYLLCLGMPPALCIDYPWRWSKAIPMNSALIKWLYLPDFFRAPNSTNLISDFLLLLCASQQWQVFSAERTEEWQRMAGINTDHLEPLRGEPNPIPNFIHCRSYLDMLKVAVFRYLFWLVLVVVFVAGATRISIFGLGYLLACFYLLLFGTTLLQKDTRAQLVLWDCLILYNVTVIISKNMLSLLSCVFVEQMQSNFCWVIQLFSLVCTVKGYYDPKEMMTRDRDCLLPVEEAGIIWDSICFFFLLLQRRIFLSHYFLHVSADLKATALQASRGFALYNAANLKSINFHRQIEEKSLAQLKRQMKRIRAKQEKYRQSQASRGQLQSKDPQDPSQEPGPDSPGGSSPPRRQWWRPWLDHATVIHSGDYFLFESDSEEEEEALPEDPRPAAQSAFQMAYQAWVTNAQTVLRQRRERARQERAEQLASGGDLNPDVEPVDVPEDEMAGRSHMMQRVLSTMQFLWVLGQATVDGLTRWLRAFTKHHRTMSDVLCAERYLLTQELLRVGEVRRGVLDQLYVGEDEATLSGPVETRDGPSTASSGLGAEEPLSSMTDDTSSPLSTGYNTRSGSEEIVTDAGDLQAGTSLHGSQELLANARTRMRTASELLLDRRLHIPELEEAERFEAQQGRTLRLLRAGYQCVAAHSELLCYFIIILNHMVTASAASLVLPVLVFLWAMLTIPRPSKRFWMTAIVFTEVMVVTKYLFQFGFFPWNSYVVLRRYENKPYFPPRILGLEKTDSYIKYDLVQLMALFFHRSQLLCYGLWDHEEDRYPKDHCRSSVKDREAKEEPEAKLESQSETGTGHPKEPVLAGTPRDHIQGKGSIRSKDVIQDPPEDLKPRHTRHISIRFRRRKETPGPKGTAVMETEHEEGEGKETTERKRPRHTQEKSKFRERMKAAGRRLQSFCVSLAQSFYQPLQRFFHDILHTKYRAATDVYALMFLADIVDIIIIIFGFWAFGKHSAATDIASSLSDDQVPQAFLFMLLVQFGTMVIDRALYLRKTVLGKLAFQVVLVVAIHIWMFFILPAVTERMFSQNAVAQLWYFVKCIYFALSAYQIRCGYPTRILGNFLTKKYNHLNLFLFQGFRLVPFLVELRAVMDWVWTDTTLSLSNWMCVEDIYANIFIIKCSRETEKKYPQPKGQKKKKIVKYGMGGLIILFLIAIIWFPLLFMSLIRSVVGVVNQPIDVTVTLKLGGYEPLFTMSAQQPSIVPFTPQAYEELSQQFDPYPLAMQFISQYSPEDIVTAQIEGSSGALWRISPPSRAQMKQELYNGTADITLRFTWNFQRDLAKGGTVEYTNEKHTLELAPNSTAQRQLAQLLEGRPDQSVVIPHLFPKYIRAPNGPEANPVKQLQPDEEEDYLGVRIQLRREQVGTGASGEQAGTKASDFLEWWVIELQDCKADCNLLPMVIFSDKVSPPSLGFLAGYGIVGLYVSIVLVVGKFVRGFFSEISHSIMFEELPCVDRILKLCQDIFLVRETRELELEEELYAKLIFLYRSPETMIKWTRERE
T1 sequence (E2JF22 whole entry G1994D): as the sequence (E2JF22 whole entry R2351Q) above, with G1994D, Q2351R counted along it

Mean normalise fluorescence (Figure 5e) ([1]; Yoda1 concentration 0.03 µM): 0.2099 | Mean normalise fluorescence (Figure 5e) ([1]; Yoda1 concentration 0.1 µM): 0.1039 | Mean normalise fluorescence (Figure 5e) ([1]; Yoda1 concentration 0.3 µM): 0.5452 | Mean normalise fluorescence (Figure 5e) ([1]; Yoda1 concentration 1 µM): 1.026 | Mean normalise fluorescence (Figure 5e) ([1]; Yoda1 concentration 3 µM): 1 | Mean normalise fluorescence (Figure 5e) ([1]; Yoda1 concentration 10 µM): 1.103 | Mean (Ca2+ signal time course, Figure 4f) ([2]; R2351Q, 0.3 µM, time 0 s): -0.00579 | Mean (Ca2+ signal time course, Figure 4f) ([2]; R2351Q, 0.3 µM, time 5 s): 0.00313 | Mean (Ca2+ signal time course, Figure 4f) ([2]; R2351Q, 0.3 µM, time 10 s): -0.01466 | Mean (Ca2+ signal time course, Figure 4f) ([2]; R2351Q, 0.3 µM, time 15 s): 0.00749 | Mean (Ca2+ signal time course, Figure 4f) ([2]; R2351Q, 0.3 µM, time 20 s): 0.00732 | Mean (Ca2+ signal time course, Figure 4f) ([2]; R2351Q, 0.3 µM, time 25 s): 0.00251 | Mean (Ca2+ signal time course, Figure 4f) ([2]; R2351Q, 0.3 µM, time 30 s): -0.3502 | Mean (Ca2+ signal time course, Figure 4f) ([2]; R2351Q, 0.3 µM, time 35 s): 0.104 | Mean (Ca2+ signal time course, Figure 4f) ([2]; R2351Q, 0.3 µM, time 40 s): 0.09692 | Mean (Ca2+ signal time course, Figure 4f) ([2]; R2351Q, 0.3 µM, time 45 s): 0.1007 | Mean (Ca2+ signal time course, Figure 4f) ([2]; R2351Q, 0.3 µM, time 50 s): 0.1032 | Mean (Ca2+ signal time course, Figure 4f) ([2]; R2351Q, 0.3 µM, time 55 s): 0.1237 | Mean (Ca2+ signal time course, Figure 4f) ([2]; R2351Q, 0.3 µM, time 60 s): 0.09438 | Mean (Ca2+ signal time course, Figure 4f) ([2]; R2351Q, 0.3 µM, time 65 s): 0.1134 | Mean (Ca2+ signal time course, Figure 4f) ([2]; R2351Q, 0.3 µM, time 70 s): 0.1058 | Mean (Ca2+ signal time course, Figure 4f) ([2]; R2351Q, 0.3 µM, time 75 s): 0.1024 | Mean (Ca2+ signal time course, Figure 4f) ([2]; R2351Q, 0.3 µM, time 80 s): 0.1081 | Mean (Ca2+ signal time course, Figure 4f) ([2]; R2351Q, 0.3 µM, time 85 s): 0.0998 | Mean (Ca2+ signal time course, Figure 4f) ([2]; R2351Q, 0.3 µM, time 90 s): 0.09979 | Mean (Ca2+ signal time course, Figure 4f) ([2]; R2351Q, 0.3 µM, time 95 s): 0.1117 | Mean (Ca2+ signal time course, Figure 4f) ([2]; R2351Q, 0.3 µM, time 100 s): 0.1219 | Mean (Ca2+ signal time course, Figure 4f) ([2]; R2351Q, 0.3 µM, time 105 s): 0.1074 | Mean (Ca2+ signal time course, Figure 4f) ([2]; R2351Q, 0.3 µM, time 110 s): 0.1111 | Mean (Ca2+ signal time course, Figure 4f) ([2]; R2351Q, 0.3 µM, time 115 s): 0.1145 | Mean (Ca2+ signal time course, Figure 4f) ([2]; R2351Q, 0.3 µM, time 120 s): 0.1043 | Mean (Ca2+ signal time course, Figure 4f) ([2]; R2351Q, 0.3 µM, time 125 s): 0.1036 | Mean (Ca2+ signal time course, Figure 4f) ([2]; R2351Q, 0.3 µM, time 130 s): 0.08711 | Mean (Ca2+ signal time course, Figure 4f) ([2]; R2351Q, 3 µM, time 0 s): -0.0026 | Mean (Ca2+ signal time course, Figure 4f) ([2]; R2351Q, 3 µM, time 5 s): -0.00676 | Mean (Ca2+ signal time course, Figure 4f) ([2]; R2351Q, 3 µM, time 10 s): -0.01186 | Mean (Ca2+ signal time course, Figure 4f) ([2]; R2351Q, 3 µM, time 15 s): -0.00542 | Mean (Ca2+ signal time course, Figure 4f) ([2]; R2351Q, 3 µM, time 20 s): 0.01045 | Mean (Ca2+ signal time course, Figure 4f) ([2]; R2351Q, 3 µM, time 25 s): 0.0162 | Mean (Ca2+ signal time course, Figure 4f) ([2]; R2351Q, 3 µM, time 30 s): -0.5301 | Mean (Ca2+ signal time course, Figure 4f) ([2]; R2351Q, 3 µM, time 35 s): -0.09017 | Mean (Ca2+ signal time course, Figure 4f) ([2]; R2351Q, 3 µM, time 40 s): 0.3419 | Mean (Ca2+ signal time course, Figure 4f) ([2]; R2351Q, 3 µM, time 45 s): 0.4568 | Mean (Ca2+ signal time course, Figure 4f) ([2]; R2351Q, 3 µM, time 50 s): 0.5783 | Mean (Ca2+ signal time course, Figure 4f) ([2]; R2351Q, 3 µM, time 55 s): 0.623 | Mean (Ca2+ signal time course, Figure 4f) ([2]; R2351Q, 3 µM, time 60 s): 0.705 | Mean (Ca2+ signal time course, Figure 4f) ([2]; R2351Q, 3 µM, time 65 s): 0.7592 | Mean (Ca2+ signal time course, Figure 4f) ([2]; R2351Q, 3 µM, time 70 s): 0.7946 | Mean (Ca2+ signal time course, Figure 4f) ([2]; R2351Q, 3 µM, time 75 s): 0.8127 | Mean (Ca2+ signal time course, Figure 4f) ([2]; R2351Q, 3 µM, time 80 s): 0.8608 | Mean (Ca2+ signal time course, Figure 4f) ([2]; R2351Q, 3 µM, time 85 s): 0.9118 | Mean (Ca2+ signal time course, Figure 4f) ([2]; R2351Q, 3 µM, time 90 s): 0.9125 | Mean (Ca2+ signal time course, Figure 4f) ([2]; R2351Q, 3 µM, time 95 s): 0.9634 | Mean (Ca2+ signal time course, Figure 4f) ([2]; R2351Q, 3 µM, time 100 s): 1.007 | Mean (Ca2+ signal time course, Figure 4f) ([2]; R2351Q, 3 µM, time 105 s): 0.9869 | Mean (Ca2+ signal time course, Figure 4f) ([2]; R2351Q, 3 µM, time 110 s): 1.018 | Mean (Ca2+ signal time course, Figure 4f) ([2]; R2351Q, 3 µM, time 115 s): 0.9551 | Mean (Ca2+ signal time course, Figure 4f) ([2]; R2351Q, 3 µM, time 120 s): 0.9921 | Mean (Ca2+ signal time course, Figure 4f) ([2]; R2351Q, 3 µM, time 125 s): 1.006 | Mean (Ca2+ signal time course, Figure 4f) ([2]; R2351Q, 3 µM, time 130 s): 0.9688 | Mean normalise fluorescence ([2]; R2351Q, 20 min exposure, Yoda1 0.03 µM, Figure 4d): 0.08092 | Mean normalise fluorescence ([2]; R2351Q, 20 min exposure, Yoda1 0.1 µM, Figure 4d): -0.0159 | Mean normalise fluorescence ([2]; R2351Q, 20 min exposure, Yoda1 0.3 µM, Figure 4d): 0.3248 | Mean normalise fluorescence ([2]; R2351Q, 20 min exposure, Yoda1 1 µM, Figure 4d): 0.9747 | Mean normalise fluorescence ([2]; R2351Q, 20 min exposure, Yoda1 3 µM, Figure 4d): 1 | Mean normalise fluorescence ([2]; R2351Q, 20 min exposure, Yoda1 10 µM, Figure 4d): 0.9987 | EC50 ([2]; long (20 min) exposure, normalized to 3 μM Yoda1): 420 nM | Mean normalise fluorescence ([2]; short 1.5-min exposure, 0.03 µM): 0.00392 | Mean normalise fluorescence ([2]; short 1.5-min exposure, 0.1 µM): 5.49E-04 | Mean normalise fluorescence ([2]; short 1.5-min exposure, 0.3 µM): 0.02154 | Mean normalise fluorescence ([2]; short 1.5-min exposure, 1 µM): 0.1259 | Mean normalise fluorescence ([2]; short 1.5-min exposure, 3 µM): 0.401 | Mean normalise fluorescence ([2]; short 1.5-min exposure, 5 µM): 0.6595 | Mean normalise fluorescence ([2]; short 1.5-min exposure, 10 µM): 1 | Effect on mPIEZO1 channel function ([2]; versus WT): loss of MA: LOF; reduced Y1 potency
Compound: Clc1cccc(Cl)c1CSc1nnc(-c2cnccn2)s1 [Yoda1]
